This note sets out measurements from patent US9217139B2, “Extracellularly secreted nuclease” (JAPAN AGENCY FOR MARINE-EARTH SCIENCE AND TECHNOLOGY, priority 2010, dated 2015).

“And” between values parts separate entries of the source, which are not always exact repeats. Identical values can stand only once. Like-named read-outs stand apart in the source and are kept apart here.

For one series, the system named is NucS. The class given is biochemical, Streptomyces sp. MBE174. On the procedure: (§1) In this case, 1 U represents an amount of enzymes necessary to increase the absorbancy of 260 nm by one for 30 minutes when the enzymes works on the following as substrate: Salmon sperm DNA 1 mg/mL (manufactured by Invitrogen; Cat no. 15632-011).
(§2) NucS and NucL were kept in contact with the compounds listed in Table 3 on an ice bath for one hour, and then, the enzyme activity was measured by the standard specific activity measurement method (referring to Table 3). […] Incidentally, poorly water-soluble compounds were dissolved in dimethyl sulfoxide, and then added to an enzyme solution. The final concentration of dimethyl sulfoxide after addition was 5 percent. The activity in the presence of 5 percent of dimethyl sulfoxide was regarded as being 100 percent.

Another series relates to NucL. The series is classed as biochemical, Streptomyces sp. MBE174. The following applies: for effect of the chemical substance on NucL activity (in words): summary of Table 3. On the procedure: as §1, §2
The next series concerns Salmon sperm DNA. The series can be described thus: standard specific activity measurement method (increase of absorbancy at 260 nm). The series is classed as biochemical. To be noted: fraction after each purification step of NucS (Table 1). The protocol: The specific activity of NucS was measured at 37 degrees Celsius in 20 mM of Tris/HCl at pH 8.5 that contains 1 mM of MgCl2 and 1 mM of CaCl2 (a measurement method under the condition described here is also referred to as a standard specific activity measurement method, hereinafter); the specific activity was 3.6×10^6 U/mg-protein, which was a very high level of specific activity. In this case, 1 U represents an amount of enzymes necessary to increase the absorbancy of 260 nm by one for 30 minutes when the enzymes works on the following as substrate: Salmon sperm DNA 1 mg/mL (manufactured by Invitrogen; Cat no. 15632-011). As a reference, as for NucS, when the specific activity of Benzonase (Registered Trademark), which was a commercially available nucleolytic enzyme that had the highest specific activity among those listed in a brochure, was measured under the conditions described in the brochure (37 degrees Celsius) with the use of the same substrate; the specific activity was 9.4×10^5 U/mg-protein. As a result, it became clear that the specific activity of NucS is about 3.8 times higher than that of Benzonase.
The specific activity of NucL was 5.6×10^4 U/mg-protein at 37 degrees Celsius in 20 mM of Tris/HCl at pH 8.5 that contains 1 mM of MgCl2 and 1 mM of CaCl2. The isoelectric point was measured by using Novex (Registered Trademark) IEF pH-3-10 gel (manufactured by Invitrogen); and then pl was 7.0. Then, it was determined that a N-terminal amino acid sequence of the purified enzyme was DSVRIHDIQGTTR. The sequence matched 12 out of 13 amino acids of putative protein (putative secreted hydrolase) coded on a genome of Streptomyces scabiei 87.22, and of putative protein (large secreted protein) coded on a genome of S. avermitilis MA-4680.

Where [1] appears, read: chemical at 1.0 mM, contact on ice bath one hour, additive-free = 100.
Where [2] appears, read: chemical at 5.0 mM, contact on ice bath one hour, additive-free = 100.
Setting [3] is: chemical at 1.0%, contact on ice bath one hour, additive-free = 100.
Setting [4] is: chemical at 10.0%, contact on ice bath one hour, additive-free = 100.
Where [5] appears, read: chemical at 20.0%, contact on ice bath one hour, additive-free = 100.
[6] abbreviates: chemical at 0.1 mM, contact on ice bath one hour, additive-free = 100.
The mark [7] stands for this setting: chemical at 0.1%, contact on ice bath one hour, additive-free = 100.
The mark [8] stands for this setting: chemical at 2.0M, contact on ice bath one hour, additive-free = 100.
The mark [9] stands for this setting: chemical at 4.0M, contact on ice bath one hour, additive-free = 100.
[10] abbreviates: chemical at 6.0M, contact on ice bath one hour, additive-free = 100.

With `O=S(=O)(F)Cc1ccccc1` [Phenylmethanesulfonyl fluoride], the figures for the “Relative activity of NucS (%)” value with NucS (setting [1]) and with NucS (setting [2]) were 85% and 87%, respectively. Moreover, the “Relative activity of NucL (%)” value with NucL (setting [1]) is reported as 111%; with NucL (setting [2]), 99%.
`OCCS` [Melcaptoethanol]: the “Relative activity of NucS (%)” value with NucS (setting [1]) was 112%; in the series on NucS (setting [2]) it was 116%. In addition, the entries for the “Relative activity of NucL (%)” value in the series on NucL (setting [1]) and in the series with NucL (setting [2]) were 89% and 92%, respectively.
Consider `C[S+](C)[O-]` [Dimethyl sulfoxide], for which the “Relative activity of NucS (%)” value came out at 110% in the series with NucS (setting [3]), 116% in the series with NucS (setting [4]) and 113% in the series on NucS (setting [5]). Moreover, in the series with NucS (summary of Table 3), the “effect of the chemical substance on NucS activity (in words)” value (shortened to “effect … on NucS activity (in words)”) is recorded as “high resistance”. Also, the “Relative activity of NucL (%)” value with NucL (setting [3]) is on record as 105%; with NucL (setting [4]) it was 75%; with NucL (setting [5]), 40%.
As to `[Cl][Cu][Cl]` [CuCl2], the entries for the “Relative activity of NucS (%)” value in the series on NucS (setting [6]) and in the series with NucS (setting [1]) were 111% and 3%, respectively. The “effect … on NucS activity (in words)” value in the series on NucS (summary of Table 3) is “strongly inhibited”. Also, the “Relative activity of NucL (%)” value in the series on NucL (setting [6]) stood at 96%; in the series with NucL (setting [1]), 9%. For the same compound, in the series with NucL, the “effect of the chemical substance on NucL activity (in words)” value (“effect … on NucL activity (in words)” below) is “strongly inhibited”.
Turning to `[Cl-].[Cl-].[Zn+2]` [ZnCl2], the results for the “Relative activity of NucS (%)” value in the series on NucS (setting [6]) and in the series on NucS (setting [1]) were 3% and 0%, respectively. In the series with NucS (summary of Table 3), the “effect … on NucS activity (in words)” value was “strongly inhibited”. For the same compound, the “Relative activity of NucL (%)” value in the series on NucL (setting [6]) amounted to 1%; in the series with NucL (setting [1]), 0%. In the series on NucL, the “effect … on NucL activity (in words)” value is “strongly inhibited”.
As for `CCCCCCCCCCCCOS(=O)(=O)[O-].[Na+]` [SDS], the “Relative activity of NucS (%)” value was found to be 85% in the series with NucS (setting [7]) and 0% in the series with NucS (setting [3]). Also, the “Relative activity of NucL (%)” value in the series on NucL (setting [7]) is given as 89%; in the series with NucL (setting [3]), 121%. For the same compound, the “effect … on NucL activity (in words)” value in the series on NucL is “high resistance”.
As to `O=C(O)CN(CCN(CC(=O)O)CC(=O)O)CC(=O)O` [Ethylenediaminetetraacetic acid], in the series with NucS, the “Relative activity of NucS (%)” value amounted to 0% and the “effect … on NucS activity (in words)” value is on record as “strongly inhibited”. In addition, in the series on NucL (setting [2]), the “Relative activity of NucL (%)” value was 0%. Also, the “Relative activity of NucL (%)” value in the series with NucL (chemical at 10.0 mM, contact on ice bath one hour, additive-free = 100) was 0%. In the series with NucL, the “effect … on NucL activity (in words)” value is “strongly inhibited”.
Turning to `O=C(O)c1cc[c]([Hg][Cl])cc1` [Parachloro mercury benzoate], the “Relative activity of NucS (%)” value in the series with NucS (setting [6]) was 92%; with NucS (setting [1]), 94%. In addition, the “Relative activity of NucL (%)” value with NucL (setting [6]) was found to be 108%; in the series on NucL (setting [1]), 91%.
Turning to `CN(C)C=O` [Dimethyl formamide], the “Relative activity of NucS (%)” value was 91% with NucS (setting [3]), 118% in the series on NucS (setting [4]) and 117% in the series on NucS (setting [5]). Also, the “effect … on NucS activity (in words)” value in the series on NucS (summary of Table 3) is recorded as “high resistance”. Further, the “Relative activity of NucL (%)” value in the series with NucL (setting [3]) worked out at 99%; with NucL (setting [4]), 74%; in the series with NucL (setting [5]), 56%.
Turning to Hydroxyapatite, the “Specific activity (U/mg)” value in the series with Salmon sperm DNA is 38596 U/mg.
On to `O=C(O)CI` [Iodoacetic acid], for which the “Relative activity of NucS (%)” value in the series on NucS was 103% and 96%. In the series with NucL, the “Relative activity of NucL (%)” value was 102% and 97%.
Regarding `O[C@H](CS)[C@H](O)CS` (racemic) [Dithiothreitol], the “Relative activity of NucS (%)” value was 105% in the series with NucS (setting [1]) and 104% with NucS (setting [2]). Further, the “Relative activity of NucL (%)” value in the series on NucL (setting [1]) and in the series with NucL (setting [2]) was 89% throughout.
As for `NC(N)=O` [Urea], the “Relative activity of NucS (%)” value in the series on NucS (setting [8]) turned out to be 125%; in the series with NucS (setting [9]) it was 126%; with NucS (setting [10]) it was 92%. Also, the “Relative activity of NucL (%)” value in the series with NucL (setting [8]) was determined as 64%; in the series with NucL (setting [9]) it was 55%; in the series on NucL (setting [10]), 43%.
Turning to Triton X, the entries for the “Relative activity of NucS (%)” value with NucS (setting [7]) and in the series on NucS (setting [3]) were 115% and 108%, respectively. Besides, the “Relative activity of NucL (%)” value is on record as 137% in the series on NucL (setting [7]) and 128% in the series with NucL (setting [3]).
